Measured values from paper PMC5597618, “Identification and characterization of the novel reversible and selective cathepsin X inhibitors” (Scientific Reports, 2017).
Like-named read-outs stand apart in the source and are kept apart here.

Key:
cathepsin X [1] = target: T1, cathepsin X (Homo sapiens, UniProt Q9UBR2); assay: Determination of relative inhibition of cathepsin X; type: biochemical; design: made in house; host or cells: Pichia pastoris
Method: (§1) Recombinant or native human cathepsins were used: recombinant cathepsin X and cathepsin S were expressed in Pichia pastoris, recombinant cathepsins B and L in E. coli, [43], native cathepsin H was isolated from human liver. Assay buffers for determining activities of cathepsins X and L consisted of 100 mM sodium acetate buffer, pH 5.5, for cathepsins H, S and B (endopeptidase activity) of 100 mM phosphate buffer pH 6.8, 6.5 and 6.0, respectively and for cathepsin B (exopeptidase activity) of 60 mM acetate buffer pH 5.0. Each assay buffer contained 0.01% Triton X-100 to prevent false positive inhibition due to aggregation of compounds[45], 5 mM cysteine, 1.5 mM EDTA and 0.1% PEG 8000. Enzymes were activated at 37 °C for 5 min before the assays.
Abz-FEK(Dnp)-OH was used as cathepsin X specific substrate in activity assays. 90 μL of activated cathepsin X (20 nM) was added to a black 96-well plate with 5 μL of substrate (3.25 μM final concentration) and 5 μL of the compound (50 μM final concentration). The reaction was monitored continuously at 420 nm ± 10 nm with excitation at 320 nm ± 20 nm and at 37 °C. Relative inhibition (%) was calculated with the equation (1 − v i/v 0) × 100, where v i is reaction velocity in the presence of the compound and v 0 is reaction velocity without the compound.

cathepsin X [2] = target: T1, cathepsin X; assay: Determination of Ki values and inhibition mechanism against cathepsin X (Abz-FEK(Dnp)-OH substrate); type: biochemical; design: made in house; host or cells: Pichia pastoris; conditions: for Inhibition mechanism: ENZO
Method: as §1
Ki was determined by measuring the initial rate of hydrolysis at three different substrate concentrations (Supplementary Table S2) in the presence of seven different compound concentrations (0, 20, 40, 60, 80, 100 and 200 μM). 90 μL of the activated cathepsin was added to a black 96-well plate with 5 μL of the substrate and 5 μL of the compound. Formation of the fluorescent degradation product was monitored continuously at 460 nm ± 10 nm with excitation at 380 nm ± 20 nm (for AMC substrates) and, as noted above for Abz substrates, at 37 °C. All measurements were performed twice and in duplicate. The resulting data were analyzed by non-linear regression using the software SigmaPlot®, Enzyme Kinetics Module™ 1.3 and were fitted to the equation v = v max [S]/([S] (1 + [I]/αK i ) + K m (1 + [I]/K i )) (first group of compounds). For Ki determination against cathepsin X for the compounds from the second group, progress curves in the absence and presence of each putative inhibitor were fitted to the reaction mechanism presented in Fig. 3b. In this case the resulting data as well as reactivation curves were fitted to the equation system presented in Fig. 3c using ENZO application. For calculation of kinetic parameters from reaction progress curves the fluorescence coefficient for conversion of arbitrary fluorescence units to concentration was first determined. The fluorescence coefficient was calculated as the slope from the plot of initial substrate concentration vs. height of the plateau of the progress curve after complete hydrolysis of increasing concentrations of substrate, using linear regression.
Supplementary Table S2. Substrates used for the various cathepsins and their concentrations […]
Enzyme Substrate Concentration (µM) Reference/Company cathepsin X Abz-FEK(Dnp)-OH 3.25, 6.5, 13 Puzer et al.3 cathepsin B - endopept. Z-RR-AMC 60, 180, 360 Bachem cathepsin B - exopept. Abz-GIVRAK(Dnp)-OH 1, 3, 6 Bachem cathepsin S Z-VVR-AMC 0.5, 1, 1.5 Biomol cathepsin L Z-FR-AMC 0.5, 1, 4 Bachem cathepsin H Z-R-AMC 20, 80, 160 Biomol […]

[3] = screening at 50 μM compound, read-out: relative inhibition of cathepsin X
[4] = first group, SigmaPlot non-linear regression at 3 different substrate concentrations
[5] = second group, 50 μM compound, 1 h preincubation, read-out: % inhibition (1 h preincubation)
[6] = second group, progress curve analysis with ENZO

T1 sequence (Q9UBR2 62-303): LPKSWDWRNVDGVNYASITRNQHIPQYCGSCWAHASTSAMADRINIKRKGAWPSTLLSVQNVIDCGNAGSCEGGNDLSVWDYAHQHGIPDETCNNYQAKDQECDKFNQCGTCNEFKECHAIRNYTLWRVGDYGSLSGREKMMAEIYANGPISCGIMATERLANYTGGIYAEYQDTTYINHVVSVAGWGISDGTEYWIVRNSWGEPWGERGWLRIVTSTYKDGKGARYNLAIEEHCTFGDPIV

| inhibition at 50 µM (cathepsin X [1]; [5]) [%] | Compound | further results |
| --- | --- | --- |
| 44 | Cc1[nH]c2ccccc2c1C(=O)CSc1nnc[nH]1 [Compound 6, 2-((4H-1,2,4-triazol-3-yl)thio)-1-(2-methyl-1H-indol-3-yl)ethanone] |  |
| 0 | COc1cc2c(cc1OC)CN(C(=O)CSc1n[nH]c(N)n1)CC2 [Compound 7, 2-((5-Amino-1H-1,2,4-triazol-3-yl)thio)-1-(6,7-dimethoxy-3,4-dihydroisoquinolin-2(1 H)-yl)ethanone] | relative inhibition of cathepsin X (cathepsin X [1]; screening at 50 μM compound): devoid of any inhibitory activity |
| 27 | Nc1nc(SCC(=O)c2ccc(Oc3ccccc3)cc2)n[nH]1 [Compound 9, 2-((5-Amino-1H-1,2,4-triazol-3-yl)thio)-1-(4-phenoxyphenyl)ethanone] |  |
| 72 | O=C(CSc1nc[nH]n1)c1ccc2c(c1)OCCO2 [Compound 11, 2-((1H-1,2,4-triazol-3-yl)thio)-1-(2,3-dihydrobenzo[b][1,4]dioxin-6-yl) ethanone] |  |
| 22 | Cc1ccc(C(=O)CSc2n[nH]c(N)n2)cc1 [Compound 13, 2-((5-Amino-1H-1,2,4-triazol-3-yl)thio)-1-(p-tolyl)ethanone] |  |
| 74 | O=C(CSc1nnc(N2CCCC2)n1C1CC1)c1ccc2c(c1)OCCO2 [Compound 14, 2-((4-Cyclopropyl-5-(pyrrolidin-1-yl)-4H-1,2,4-triazol-3-yl)thio)-1-(2,3-dihydrobenzo[b][1,4]dioxin-6-yl)ethanone] | inhibition at 50 µM (cathepsin X [1]; [3]): > 70%; Inhibition mechanism (cathepsin X [2]; second group): competitive; Ki (cathepsin X [2]; [6]): 5.41 ± 0.19 µM |
| 23 | Cc1[nH]c2ccccc2c1C(=O)C(C)Sc1n[nH]c(N)n1 (stereo not drawn) [Compound 15, 2-((5-Amino-1H-1,2,4-triazol-3-yl)thio)-1-(2-methyl-1H-indol-3-yl)propan-1-one] |  |
| 25 | COc1ccc(C(=O)C(C)Sc2nncn2C)cc1OC (stereo not drawn) [Compound 18, 1-(3,4-Dimethoxyphenyl)-2-((4-methyl-4H-1,2,4-triazol-3-yl)thio)propan-1-one] |  |
| 27 | Nc1cc(N)nc(SCC(=O)c2ccc3c(c2)OCCO3)n1 [Compound 19, 2-((4,6-Diaminopyrimidin-2-yl)thio)-1-(2,3-dihydrobenzo[b][1,4]dioxin-6-yl)ethan-1-one] |  |
| 39 | COc1ccc(C(=O)CSc2n[nH]c(N)n2)cc1F [Compound 21, 2-((5-Amino-1H-1,2,4-triazol-3-yl)thio)-1-(3-fluoro-4-methoxyphenyl)ethan-1-one] |  |
| 72 | O=C(CSc1nncn1-c1ccccc1)c1ccc2c(c1)OCCO2 [Compound 23, 1-(2,3-Dihydrobenzo[b][1,4]dioxin-6-yl)-2-((4-phenyl-4H-1,2,4-triazol-3-yl)thio)ethan-1-one] |  |

The next lines start with the compound.

| Compound | inhibition at 50 µM (cathepsin X [1]; [5]) [%] | further results |
| --- | --- | --- |
| N#Cc1c(NC(=O)c2cc(OCCN)ccc2Cl)sc2c1CCCC2 [Compound 3, 5-(2-Aminoethoxy)-2-chloro-N-(3-cyano-4,5,6,7-tetrahydrobenzo[b]thiophen-2-yl)benzamide] |  | inhibition at 50 µM (cathepsin X [1]; [3]): 60 to 75%; Ki (cathepsin X [2]; [4]): 260 ± 31.9 µM |
| N#Cc1c(NC(=O)c2cc(OCCCN)ccc2Cl)sc2c1CCCC2 [Compound 4, 5-(3-Aminopropoxy)-2-chloro-N-(3-cyano-4,5,6,7-tetrahydrobenzo[b]thiophen-2-yl)benzamide] |  | inhibition at 50 µM (cathepsin X [1]; [3]): 60 to 75%; Ki (cathepsin X [2]; [4]): 230 ± 2.9 µM |
| O=C(NC1CC2C(=O)NCC(=O)N2C1)c1ccc2cccnc2n1 (stereo not drawn) [Compound 5] |  | inhibition at 50 µM (cathepsin X [1]; [3]): 60 to 75%; Ki (cathepsin X [2]; [4]): 136 µM |
| Nc1nc(SCC(=O)c2ccc3c(c2)OCO3)n[nH]1 [Compound 8, 2-((5-Amino-1H-1,2,4-triazol-3-yl)thio)-1-(benzo[d][1,3]dioxol-5-yl) ethanone] | 67 |  |
| Nc1nc(SCC(=O)c2ccc(-c3ccccc3)cc2)n[nH]1 [Compound 10, 1-([1,1′-Biphenyl]-4-yl)-2-((5-amino-1H-1,2,4-triazol-3-yl)thio)ethanone] | 64 |  |
| N#Cc1ccc(C(=O)CSc2n[nH]c(N)n2)cc1 [Compound 16, 4-(2-((5-Amino-1H-1,2,4-triazol-3-yl)thio)acetyl)benzonitrile] | 15 |  |
| O=C(CSc1nc(C2CC2)n[nH]1)c1ccc2c(c1)OCCO2 [Compound 17, 2-((3-Cyclopropyl-1H-1,2,4-triazol-5-yl)thio)-1-(2,3-dihydrobenzo[b][1,4]dioxin-6-yl)ethan-1-one] | 72 | inhibition at 50 µM (cathepsin X [1]; [3]): > 70%; Inhibition mechanism (cathepsin X [2]; second group): competitive; Ki (cathepsin X [2]; [6]): 7.35 ± 0.28 µM |
| COc1ccccc1-n1cnnc1SCC(=O)c1ccc2c(c1)OCCO2 [Compound 24, 1-(2,3-Dihydrobenzo[b][1,4]dioxin-6-yl)-2-((4-(2-methoxyphenyl)-4H-1,2,4-triazol-3-yl)thio)ethan-1-one] | 73 |  |
| COc1ccccc1C(=O)CSc1n[nH]c(N)n1 [Compound 25, 2-((5-Amino-1H-1,2,4-triazol-3-yl)thio)-1-(2-methoxyphenyl)ethan-1-one] | 50 |  |
